In general, GI50 refers to the concentration giving 50% growth inhibition.

Structures are written as SMILES. Calls of active or inactive are those of the source. The rule behind the calls is not given here.

Data set [1] can be described thus: Selectivity index, ratio of GI50 for human CRL1790 cells to GI50 for human HCT116 cells. In kind it is functional.
Data set [2] has as its system Liver. Nature of the data set: Induction of mitochondrial swelling in Wistar rat liver […] at 0.1 uM after 20 mins in presence of pyruvate and malate by spectroscopic analysis. In kind it is functional.
The subject of data set [3] is HCT-116. Nature of the data set: Antiproliferative activity against human HCT116 cells after 48 hrs by sulforhodamine B assay. In kind it is functional. The settings on record: HCT-116, 48 h.
Data set [4] can be described thus: Cytotoxicity against human CRL1790 cells assessed as reduction in cell viability after 48 hrs by sulforhodamine B assay. The settings on record: CRL1790 (CCD-841CoN) cells. In kind it is cell-based. A general note: The SRB assay estimates cell density from bound dye.
The subject of data set [5] is Liver. Kind of data set: Stimulation of mitochondrial respiration in Wistar rat liver […] assessed as oxygen consumption rate at 0.1 and 10 uM using pyruvate and malate as respiratory substrate after 4 mins. In kind it is functional. A general note: Liver microsomes are a subcellular fraction often used to study metabolism.
For data set [6], the system named is Liver. Kind of data set: Stimulation of mitochondrial respiration in Wistar rat liver […] assessed as oxygen consumption rate at 20 and 25 uM using pyruvate and malate as respiratory substrate after 4 mins. In kind it is functional.
The subject of data set [7] is HCT-116. Nature of the data set: Induction of glutathione oxidation in human HCT116 cells assessed as increase in GSSG/GSH ratio at 500 uM in presence of NADPH after 48 hrs by Ellman's method. In kind it is functional, cell-based. For orientation: In Ellman's method for cholinesterases, released thiocholine reacts with DTNB.
In data set [8] the test system is HCT-116. Nature of the data set: Induction of reactive oxygen species generation in human HCT116 cells at antiproliferative GI50 after 60 mins by DCFH-DA probe based assay. In kind it is functional, cell-based.
Data set [9] concerns HCT-116. Nature of the data set: Induction of mitochondrial membrane potential loss in human HCT116 cells at antiproliferative GI50 after 48 hrs by JC-1 staining based fluorescence assay. In kind it is functional, cell-based.
Data set [10] deals with HCT-116. Kind of data set: Induction of mitochondrial superoxide generation in human HCT116 cells at antiproliferative GI50 after 60 mins by mitoSOX red-probe based fluorescence assay. In kind it is functional, cell-based.

For `O=c1[nH]cc(F)c(=O)[nH]1` [FLUOROURACIL], in data set [1], the RatioGI50 worked out at 1.88. The result in the data set with Liver [2] and in the data set with Liver [5] was inactive. Also, halving of growth in the data set on HCT-116 [3] (GI50) required 5.47 µM. Further, the GI50 at 48 h in data set [4] worked out at 10.3 µM.
As to `O=[N+]([O-])c1ccc(O)c([N+](=O)[O-])c1`, the result with Liver [6] was Active.
Consider `COc1cc(/C=C/C(=O)CC(=O)/C=C/c2ccc(O)c(OC)c2)ccc1O` [CURCUMIN], for which the result in the data set with HCT-116 [7], in the data set with HCT-116 [8], with HCT-116 [9], in the data set with HCT-116 [10] and in the data set on Liver [2] was Active. The RatioGI50 in data set [1] came to 16.7. In addition, in the data set with HCT-116 [3], the GI50 is 3.5 µM. Also, the GI50 at 48 h in data set [4] is 58.6 µM.

These data come from ChEMBL document CHEMBL4052771, “3,5-Bis(3-dimethylaminomethyl-4-hydroxybenzylidene)-4-piperidone and related compounds induce glutathione oxidation and mitochondria-mediated cell death in HCT-116 colon cancer cells” (Bioorg Med Chem Lett, 2017).
